Experimental data taken from US6635786B2, “Symmetrically disubstituted aromatic compounds and pharmaceutical compositions for inhibiting poly (ADP-ribose) glycohydrolase, and methods for their use” (Guilford Pharmaceuticals, Inc., priority 2001, dated 2003).

What was measured:
human PARG = target: T1, human PARG (Homo sapiens, UniProt Q86W56); assay: PARG enzymatic assay; assay type: biochemical; details: recombinant GST-fused human PARG (aa 378-976); 3H-labeled poly-(ADP-ribose) substrate; 23° C., 10 min
T1 construct: human PARG from amino acid 378 to 976; GST (glutathione-S-transferase, pGEX-4T1) (N); made in house; host or cells: E. coli BL21
Method: The potency of PARG inhibition was determined in a PARG enzymatic assay. For each compound, various doses were used to inhibit the PARG reaction. A dose responsible curve was generated to determine the IC50 value and the concentration (in μM) required to achieve 50% inhibition of the reaction.
The PARG assay consisted of (a) preparation of 3H-labeled radioactive PARG as substrate, (b) purification of recombinant PARG, (c) incubation of the compound with the PARG reaction, (d) separation of the product by absorption to glass fiber filter and quantifying the radioactivity of ADP-ribose by scintillation counting.
3H-labeled poly-(ADP-ribose) was made by mixing labeled and unlabeled PAR. Labeled PAR was synthesized in a reaction of 50 mM Tris-HCl (pH 8.0), 4 mM MgCl2, 0.8 μg/mL activated DNA, 3 μM NAD, NEN 3H-NAD (0.1 mCi/mL), 0.8 μl/mL and 1.4 μl/mL Trevigen PARP. The reaction was incubated at room temperature for 60 min, then dialyzed to remove unincorporated 3H NAD using a MWCO 7000 dialysis cassette in 50 mM Phosphate buffer (pH 7.1) at 5° C. over night. Buffer was changed and dialysis continued for 2 h in the morning. The resulting 3H PAR gave 80,000 DPM/10 μL by scintillation counting.
Unlabeled PAR was synthesized in a reaction that consisted of 50 mM Tris-HCl (pH 8.0), 4 mM MgCl2, 0.8 μg/mL activated DNA, 150 μM NAD, and 1.9 μl/mL Trevigen PARP. The reaction was incubated at room temperature for 60 min, and dialyzed to remove unincorporated NAD in a MWCO 7000 cassette using 50 mM Phosphate buffer (pH 7.1) over night at […]. Buffer was changed and dialysis continued for 2 h in the morning. The OD260 of synthesized PAR is […].
The final PAR mix is made by combining 3H-PAR and PAR synthesized @ 150 μM NAD so that the OD260=0.2-0.3 and the DPM/10 μL=10,000 DPM (SA=0.45 Ci/mmole). EDTA was added to 1 mM.
A cDNA fragment encoding the carboxy terminal part of human PARG from amino acid 378 to 976 was amplified by polymerase chain reaction with human thymus cDNA (Clontech, Palo Alto, Calif.) as a template and a pair of primers with the sequences of 5′-[…]-3′ and 5′-[…]-3′. The primers contained the restriction enzyme sites EcoRI and XhoI. The PCR amplified PARG DNA fragment was digested with EcoRI and XhoI, and then ligated to the same sites in pGEX-4T1 plasmid (acquired from Pharmacia/Upjohn Co., Kalamazoo, Mich.) to create pGEX-PARG by using standard molecular biology procedure. The pGEX-PARG was transformed into E. coli strain BL21 for expressing the recombinant protein that has a glutathione-S-transferase at the amino terminus and fused in frame with PARG at the carboxy terminus. The recombinant protein was expressed and purified using glutathione-sephadex 4B beads according to the standard methodology.
A range of potential PARG inhibitors at final concentrations of 200.0 to 0.1 μM were tested, each point done in triplicate. The compounds were dissolved in DMSO resulting in a final DMSO concentration of 5.0%. The reaction was carried out in a volume of 0.1 mL. PARG enzyme was added to a concentration of 0.05 μL/mL to microtiter plates containing approximately 10 μM 3H-labeled poly-(ADP-ribose) in 50 mM Phosphate buffer (pH 7.1), 5 mM B-mercaptoethanol. The reaction was incubated at 23° C. for 10 min. and was stopped with the addition of TCA to a final concentration of 10%.
Enzyme activity was measured by the disappearance of substrate, [poly-(ADP-ribose) polymer], which was quantified as the loss of glass fiber filter adsorbed radioactivity. The reaction was harvested onto Millipore GFC96 well filter plates using the Packard Cell Harvestor. The plates were washed three times with 70% ethanol, air dried, and the radioactivity was measured by scintillation counting.

T1 sequence (Q86W56 378-976): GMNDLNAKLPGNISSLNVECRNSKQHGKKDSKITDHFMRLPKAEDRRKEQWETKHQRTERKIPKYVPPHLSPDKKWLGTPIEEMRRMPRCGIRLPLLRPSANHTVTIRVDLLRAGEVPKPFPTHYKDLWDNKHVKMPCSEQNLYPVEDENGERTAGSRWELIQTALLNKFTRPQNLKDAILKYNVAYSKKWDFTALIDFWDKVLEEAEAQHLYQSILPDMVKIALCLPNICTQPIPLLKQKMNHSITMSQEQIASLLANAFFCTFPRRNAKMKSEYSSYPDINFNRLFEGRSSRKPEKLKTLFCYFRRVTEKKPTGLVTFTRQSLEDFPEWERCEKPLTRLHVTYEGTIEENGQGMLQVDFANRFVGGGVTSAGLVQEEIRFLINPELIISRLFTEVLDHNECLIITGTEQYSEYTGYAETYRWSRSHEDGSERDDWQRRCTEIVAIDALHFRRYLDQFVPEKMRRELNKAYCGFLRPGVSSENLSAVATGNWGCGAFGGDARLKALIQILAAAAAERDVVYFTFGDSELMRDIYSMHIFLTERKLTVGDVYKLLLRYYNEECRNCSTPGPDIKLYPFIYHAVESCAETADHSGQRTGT

Row | melting point | IC50 (human PARG) | Compound
1 | 159 to 162 °C | 13.5 µM | O=C(OCc1ccccc1)c1ccc2c(c1)C(Cl)(Cl)c1cc(C(=O)OCc3ccccc3)ccc1-2 [Example 1, 9,9-Dichloro-9H-fluorene-2,7-dicarboxylic acid bis-benzyl ester]
2 | 91 to 92 °C | 11.3 µM | O=C(OCCCc1ccccc1)c1ccc2c(c1)C(Cl)(Cl)c1cc(C(=O)OCCCc3ccccc3)ccc1-2 [Example 2, 9,9-Dichloro-9H-fluorene-2,7-dicarboxylic acid bis-(3-phenyl-propyl) ester]
3 | 165 to 167 °C | 4.3 µM | O=C(NCCCc1ccccc1)c1ccc2c(c1)C(Cl)(Cl)c1cc(C(=O)NCCCc3ccccc3)ccc1-2 [Example 13, 2,7-Bis-[N-(3-phenyl-propyl)-carbamoyl]-9,9-dichloro-9H-fluorene]
4 | 162 to 165 °C | 1.7 µM | O=C(NCCCc1ccccc1)c1ccc2c(c1)C(=O)c1cc(C(=O)NCCCc3ccccc3)ccc1-2 [Example 16]
5 | 244 to 248 °C | 6 µM | O=C(NCCc1ccccc1)c1ccc(C(=O)c2ccc(C(=O)NCCc3ccccc3)cc2)cc1 [Example 18, 4,4′-Bis(N-phenethyl)carbamoyl-benzophenone]
6 | 157 to 158 °C | 17.1 µM | O=C(c1cccc(C(=O)N2CCN(c3ccccc3)CC2)c1)c1cccc(C(=O)N2CCN(c3ccccc3)CC2)c1 [Example 22]
7 | 179 to 181 °C | 17 µM | O=C(CCCl)c1ccc2c(c1)Cc1cc(C(=O)CCCl)ccc1O2 [Example 37, 2,7-Bis-(3-chloro-propionyl)-xanthene]
8 | 206 to 208 °C | 7.1 µM | O=C(CCN1CCN(c2ccccc2)CC1)c1ccc2c(c1)Cc1cc(C(=O)CCN3CCN(c4ccccc4)CC3)ccc1O2 [Example 39, 2,7-Bis-[3-(4-phenyl-piperazin-1-yl)propionyl]-xanthene]
9 | 155 to 157 °C | 10.6 µM | O=C(CCN1CCN(c2cccc(C(F)(F)F)c2)CC1)c1ccc2c(c1)Cc1cc(C(=O)CCN3CCN(c4cccc(C(F)(F)F)c4)CC3)ccc1O2 [Example 40, 2,7-Bis-{3-[4-(3-trifluoromethyl-phenyl)-piperazin-1-yl]-propionyl}-xanthene]
10 | 166 to 167 °C | 17.5 µM | O=C(CCN1CCN(c2cccc(C(F)(F)F)c2)CC1)c1ccc2oc3ccc(C(=O)CCN4CCN(c5cccc(C(F)(F)F)c5)CC4)cc3c(=O)c2c1 [Example 41, 2,7-Bis-{3-[4-(3-trifluoromethyl-phenyl)-piperazin-1-yl]-propionyl}-xanthen-9-one]
11 | 199 to 201 °C | 100 µM | O=C(CCN1CCN(c2ccccc2)CC1)c1ccc2oc3ccc(C(=O)CCN4CCN(c5ccccc5)CC4)cc3c(=O)c2c1 [Example 42, 2,7-Bis-[3-(4-phenyl-piperazin-1-yl)-propionyl]-xanthen-9-one]
12 | – | 12 µM | O=C(c1cccc2c1S(=O)(=O)c1c(cccc1C(=O)N1CCN(c3ccc(C(F)(F)F)cc3)CC1)O2)N1CCN(c2ccc(C(F)(F)F)cc2)CC1 [Example 44, 1,9-Bis-{N-[4-(4-trifluoromethyl-phenyl)-piperazine]carbamoyl}-10,10-dioxo-phenoxathiin]
13 | – | 37.9 µM | O=C(c1cccc2c1S(=O)(=O)c1c(cccc1C(=O)N1CCN(c3ccc(O)cc3)CC1)O2)N1CCN(c2ccc(O)cc2)CC1 [Example 45, 1,9-Bis{N-[4-(4-hydroxy-phenyl)-piperazine]carbamoyl}-10,10-dioxo-phenoxathiin]
14 | – | 28.4 µM | O=C(c1cccc2c1S(=O)(=O)c1c(cccc1C(=O)N1CCN(c3ccncc3)CC1)O2)N1CCN(c2ccncc2)CC1 [Example 46, 1,9-Bis{N-[4-(pyridin-4-yl)-piperazine]carbamoyl}-10,10-dioxo-phenoxathiin]
15 | – | 100 µM | O=C(NCCCc1ccccc1)c1cccc2c1S(=O)(=O)c1c(cccc1C(=O)NCCCc1ccccc1)O2 [Example 47, 1,9-Bis-[N-(3-phenpropyl)carbamoyl]-10,10-dioxo-phenoxathiin]
16 | – | 38.7 µM | O=C(NCCc1ccc(Cl)cc1Cl)c1cccc2c1S(=O)(=O)c1c(cccc1C(=O)NCCc1ccc(Cl)cc1Cl)O2 [Example 48, 1,9-Bis{N-[2-(2,4-dichlorophenyl)ethyl]carbamoyl}-10,10-dioxo-phenoxathiin]
17 | – | 9.9 µM | O=C(NCCN1CCCC1)c1cccc2c1S(=O)(=O)c1c(cccc1C(=O)NCCN1CCCC1)O2 [Example 49, 1,9-Bis{N-[2-(pyrrolidin-1-yl)ethyl]carbamoyl}-10,10-dioxo-phenoxathiin]
18 | – | 11.5 µM | O=C(NCCc1cccs1)c1cccc2c1S(=O)(=O)c1c(cccc1C(=O)NCCc1cccs1)O2 [Example 50, 1,9-Bis{N-[2-(thiophen-2-yl)ethyl]carbamoyl}-10,10-dioxo-phenoxathiin]
19 | – | 9.6 µM | O=C(NCCCN1CCOCC1)c1cccc2c1S(=O)(=O)c1c(cccc1C(=O)NCCCN1CCOCC1)O2 [Example 51, 1,9-Bis{N-[3-(morpholin-4-yl)-propyl]carbamoyl}-10,10-dioxo-phenoxathiin]
20 | – | 31.6 µM | COc1cc(CCNC(=O)c2cccc3c2S(=O)(=O)c2c(cccc2C(=O)NCCc2cc(OC)cc(OC)c2)O3)cc(OC)c1 [Example 52, 1,9-Bis {N-[2-(3,5-dimethoxyphenyl)ethyl]carbamoyl}-10,10-dioxo-phenoxathiin]
21 | – | 11.8 µM | CN(CCCC(=O)c1ccc2c(c1)-c1ccc(C(=O)CCCN(C)c3ccccc3)c3cccc-2c13)c1ccccc1 [Example 53, 3,9-Bis[4-(methylphenylamino)butyryl]fluoranthene]
22 | – | 5.4 µM | O=C(CCCn1cccc1)c1ccc2c(c1)-c1ccc(C(=O)CCCn3cccc3)c3cccc-2c13 [Example 54, 3,9-Bis[4-(1-pyrrolo)butyryl]fluoranthene]
23 | 327 to 329 °C | 22 µM | O=C(NCCc1ccccc1)c1ccc2c(c1)C(=O)c1cc(C(=O)NCCc3ccccc3)ccc1-2 [Example 56, 9-Oxo-9H-fluorene-2,7-bis-(phenethyl-amide)]
24 | 265 to 267 °C | 15 µM | O=C(NCc1ccc(Cl)c(Cl)c1)c1ccc2c(c1)C(=O)c1cc(C(=O)NCc3ccc(Cl)c(Cl)c3)ccc1-2 [Example 57, 9-Oxo-9H-fluorene-2,7-bis-(3,4-dichloro-benzylamide)]
25 | 160 to 163 °C | 10 µM | O=C(NCc1ccc(O)c(O)c1)c1ccc2c(c1)C(=O)c1cc(C(=O)NCc3ccc(O)c(O)c3)ccc1-2 [Example 58, 9-Oxo-9H-fluorene-2,7-bis-(3,4-dihydroxy-benzylamide)]
26 | 207 to 209 °C | 2.9 µM | O=C(CCN1CCN(c2ccc(F)cc2)CC1)c1ccc2c(c1)Cc1cc(C(=O)CCN3CCN(c4ccc(F)cc4)CC3)ccc1O2 [Example 59]
27 | 182 to 185 °C | 1.1 µM | O=C(CCN1CCN(c2cccc(Cl)c2)CC1)c1ccc2c(c1)Cc1cc(C(=O)CCN3CCN(c4cccc(Cl)c4)CC3)ccc1O2 [Example 60]
